Read-outs that look alike come from different tables or passages of the source.
How the values were obtained:
[1] = molecular target: T1, Human ALDH1A1 (Homo sapiens, UniProt P00352); test: 1,536-well enzymatic assay (NADH fluorescence), ALDH1A1; assay type: biochemical; conditions: validation set; 20 nM enzyme, NAD+ and propionaldehyde; read-out: Biochemical IC50 ALDH1A1
T1 construct: made in house
T1 sequence (P00352 1-501): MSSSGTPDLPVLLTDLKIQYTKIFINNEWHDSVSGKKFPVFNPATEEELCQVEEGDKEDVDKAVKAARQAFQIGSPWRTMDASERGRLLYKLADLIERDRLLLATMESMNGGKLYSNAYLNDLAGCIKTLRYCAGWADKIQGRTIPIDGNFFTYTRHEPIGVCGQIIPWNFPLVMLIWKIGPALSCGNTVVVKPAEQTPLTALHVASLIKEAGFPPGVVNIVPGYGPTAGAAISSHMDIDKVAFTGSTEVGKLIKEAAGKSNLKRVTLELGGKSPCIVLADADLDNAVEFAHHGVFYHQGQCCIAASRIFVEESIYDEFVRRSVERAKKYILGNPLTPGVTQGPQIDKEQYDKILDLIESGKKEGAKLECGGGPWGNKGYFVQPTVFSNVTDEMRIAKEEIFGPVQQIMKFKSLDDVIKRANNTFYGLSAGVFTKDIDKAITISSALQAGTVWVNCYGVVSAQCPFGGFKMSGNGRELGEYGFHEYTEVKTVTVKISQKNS
Source text: To validate our optimized assay, we assembled a set of 20 previously reported ALDH inhibitors, with varying degrees of target specificity (Table 1 and S4 Fig). […] Briefly, the assay measures the dehydrogenase activity of recombinant human ALDH1A1, ALDH1A2, ALDH1A3, ALDH2 or ALDH3A1 using NAD(P)^+ and either propionaldehyde or benzaldehyde as substrates. An orthogonal resorufin-based assay format was also run with isolated ALDH1A1 to rule out potential false positives due to intrinsic compound fluorescence.
Human ALDH1A1 and ALDH3A1 were expressed and purified as described elsewhere. Human ALDH2 was purchased from Abcam (ab87415). Human ALDH1A2 and ALDH1A3 were purchased from MyBioSource (MBS1005929; San Diego, CA) and ThermoFisher (11636H07E50), respectively. The inhibitory activity of compounds against ALDHs was measured according to protocols described previously. Briefly, 3 μL of enzyme (final concentrations of 20 nM for ALDH1A1, 50 nM for ALDH1A2, 50 nM for ALDH1A3, 75 nM for ALDH2 and 5 nM for ALDH3A1) in assay buffer (100 mM HEPES pH 7.5 with 0.01% Tween 20) were dispensed into a 1,536-well solid-bottom black plate (Greiner Bio One, Monroe, NC). […] Samples were incubated (room temperature, protected from light) for 15 minutes followed by a 1 μL substrate addition of NAD^+ and Propionaldehyde (final concentrations of 1 mM and 80 μM, respectively) for ALDH1A1, 1A2, 1A3, and ALDH2 or NADP^+ and benzaldehyde (final concentrations of 1 mM and 200 μM, respectively) for ALDH3A1. Plates were centrifuged at 1,000 rpm for 15 seconds, then read in kinetic mode on a ViewLux High-throughput CCD imager (PerkinElmer, Waltham, MA) equipped with standard UV fluorescence optics (340 nm excitation, 450 nm emission) for 5 (ALDH1A1, ALDH1A2, ALDH2, ALDH3A1) or 30 (ALDH1A3) minutes. The change in fluorescence intensity over the 5- or 30-minute reaction period was normalized against no-inhibitor and no-enzyme controls and the resulting percent inhibition data were fitted to a 4-parameter Hill equation. Bay-11 7085 was used as intraplate control. To account for artifacts due to intrinsic compound fluorescence in the above spectrum, compounds were also tested in an orthogonal resorufin assay format with optics of excitation 525 nm/emission 598 nm as described before. The same parameters as the NADH assay were used for the resorufin assay, with the addition of (final) 133 μg/mL diaphorase and 37 μM resazurin to the assay solution. Same controls were used in both formats.

[2] = system: MIA PaCa-2 cells; test: 1,536-well high-content imaging ALDEFLUOR assay, MIA PaCa-2; assay type: cell-based, human; conditions: semi-automated; active = high quality concentration response curve and >50% efficacy; up to 45.8 μM
Method: (§1) To miniaturize the assay into a 1536-well format amenable to qHTS, we chose MIA PaCa-2 and HT-29 because of their high levels of ALDH1A1(Fig 1A). Utilizing the 8-step protocol described by Ming et al. as a starting point, we developed a “semi-automated” protocol described in S1 Table. Briefly, we plated 1,000 cells in a volume of 5 μL/well into black-optical quality clear bottom 1,536-well plates, and allowed cells to attach overnight. Culture media was subsequently removed by inverting and centrifuging plates using a plate adaptor as previously described and replaced with 5 μL of a solution of either 500 or 100 nM BAAA substrate in ALDEFLUOR buffer. To identify cells based on nuclear staining, we also included 0.5 nM Hoechst 33342 in the above buffer. […] After incubating the plate for 30 minutes at 37°C, 5% CO2, 85% RH, the remaining substrate was removed by centrifugation as above and replaced with 3 μL of ALDEFLUOR buffer. Fluorescence was subsequently imaged using the IN Cell Analyzer 2200 high-content widefield fluorescence based imager and the resulting images were quantified using the IN Cell Investigator v1.6.2 analysis software (see Experimental Procedures for analysis details).
(§2) The ALDEFLUOR kit was purchased from […] Technologies (Vancouver, Canada; #01700). Cells (5 μL) were dispensed into black, optical quality (cyclic olefin copolymer) clear bottom, medium binding TC treated 1,536-well plates (Aurora Microplates, Whitefish MT) using a Multidrop Combi dispenser (ThermoFisher) and incubated overnight (37°C, 5% CO2, 85% RH). Media was subsequently removed by centrifuging plates upside down using a plate adaptor to collect media. A solution of BAAA substrate ([…] Technologies) and Hoechst 33342 (ThermoFisher, final concentrations of 500 nM and 0.5 nM, respectively) in ALDEFLUOR buffer ([…] Technologies #01700) was dispensed onto cells using a Multidrop Combi followed by immediate transfer (23 nL) of compound or control solutions using a Wako Pin-tool (final percentage of DMSO in the cell plates was 0.5%). Unless otherwise noted, all compounds were assayed as 16-point dilutions spanning a final concentration range of 1.4 nM to […]. […] Cells were incubated for 30 minutes or the indicated amount of time at 37°C, 5% CO2, 85% RH to allow the conversion of BAAA into BAA. Supernatant was subsequently removed by centrifugation as described above, then ALDEFLUOR buffer (3 μl) was dispensed by Multidrop Combi before imaging on an IN Cell 2200 (GE Healthcare).
(§3) The above assay was modified for an online robotic screening system. After cell plating and overnight incubation, 4 μL of media were removed using a 64-tip metal aspirator head on a Wako aspirator station, leaving 1 μL remaining in the well, followed by a 4 μL dispense of BAAA and Hoechst 33342 in ALDEFLUOR buffer, for a final concentration of 500 nM and 0.5 nM, respectively. Immediately following the dispense, 23 nL of compound or control solutions were transferred using a Wako Pin-tool. Cells were incubated for 30 minutes at 37°C, 5% CO2, 85% RH, followed by a 4 μL media removal using the Wako aspirator, and a subsequent 3 μL addition of ALDEFLUOR buffer. Plates were then immediately read on the IN Cell 2200 as described below.
(§4) For images captured on the IN Cell 2200 widefield automated microscope, a 10x 0.45 NA Plan Apo objective lens was used to capture the entire well of the 1,536-well plate using standard DAPI (390/18x, 432/48m) and FITC (475/28x, 525/48m) filter sets at 50 msec and 100 msec exposures, respectively. Images were subsequently analyzed using IN Cell Investigator v1.6.2 analysis software’s canned Multi-Target Analysis algorithm (GE Healthcare). Hoechst stained nuclei were identified using top hat segmentation with a minimum area of 75 μm^2 and sensitivity of 93. […]

[3] = system: HT-29 cells; test: 1,536-well high-content imaging ALDEFLUOR assay, HT-29; assay type: cell-based, human
Method: as §1, §2, §3, §4

[4] = system: LN-229 cells; test: 1,536-well high-content imaging ALDEFLUOR assay, LN-229; assay type: cell-based, human; conditions: fully automated assay, Fig 5
Method: We next sought to test if the fully automated high-content assay could be used to detect ALDH1A1-specific inhibitors.
as §2
as §3, with “Cells were incubated for 30 minutes at 37°C, 5% CO2, 85% RH, followed by a 4 μL media removal using the Wako aspirator, and a subsequent 3 μL addition of ALDEFLUOR buffer.” left out
as §4, with “Healthcare).” for “Healthcare). Hoechst stained nuclei were identified using top hat segmentation with a minimum area of 75 μm^2 and sensitivity of 93.”
The same controls were also used for the calculation of the Z’ factor for each assay. The Z’ factor, a measure of assay quality control, was determined as previously described. […] All concentration–response curves were fitted as before and IC50 were calculated with the GraphPad Prism software.

[5] = system: ALDH1A1; conditions: reported ALDH target 1A1; read-out: Reported Biochemical IC50, ALDH1A1; cited from earlier work

SMILES	IC50 [1] [µM]	Activity in ALDEFLUOR assay, MIA PaCa-2 [2]	Activity in ALDEFLUOR assay, HT-29 ([3]; semi-automated, active = high quality concentration response curve and >50% efficacy, up to 45.8 μM)	IC50 ([3]; fully automated assay, n = 4, read-out: ALDEFLUOR IC50 HT-29 (Fig 5)) [µM]	IC50 ([3]; validation set, semi-automated protocol, 16-point dilution, 1,000 cells/well, 500 nM BAAA, 30 min, read-out: Aldefluor IC50 HT-29) [µM]	Inhibition of BAAA turnover in LN-229 (ALDH1A1-negative cells) [4]	IC50 [5] [µM]
CCSC(=O)N1CCCCCC1 [Molinate]	27	tested negative	tested negative				
CC(C)CCn1c(CN2CCN(C(=O)C3CC3)CC2)nc2c1c(=O)n(C)c(=O)n2C [NCT-501]				3.3	4.33	inhibited BAAA turnover only in ALDH1A1-expressing cells	[…]
